Data from the CheMixHub ionic liquid set.
± gives the uncertainty stated by the source.

Test: xn = mol fraction of the nth substance listed

CCCCCCCCCCCCCCCC[n+]1ccccc1.[Cl-] + NCC(=O)NCC(=O)O + O
electrical conductivity [S/m], 100 kPa
Details | x1 = 8.993e-05, x2 = 0.001802 | x1 = 8.996e-05, x2 = 0.001442 | x1 = 8.999e-05, x2 = 0.001082 | x1 = 9.003e-05, x2 = 0.0007214 | x1 = 9.006e-05, x2 = 0.0003609 | x1 = 9.009e-05, x2 = 0
298.15 K | 0.024 ± 0.001 | 0.023 ± 0.001 | 0.022 ± 0.001 | 0.021 ± 0.001 | 0.02 ± 0.001 | 0.02 ± 0.001
303.15 K | 0.025 ± 0.001 | 0.024 ± 0.001 | 0.023 ± 0.001 | 0.022 ± 0.001 | 0.021 ± 0.001 | 0.021 ± 0.001
308.15 K | 0.027 ± 0.001 | 0.026 ± 0.001 | 0.024 ± 0.001 | 0.023 ± 0.001 | 0.022 ± 0.001 | 0.021 ± 0.001
313.15 K | 0.028 ± 0.001 | 0.027 ± 0.001 | 0.025 ± 0.001 | 0.024 ± 0.001 | 0.023 ± 0.001 | 0.023 ± 0.001

CCCCCCCCCCCCCCCC[N+](C)(C)C.[Br-] + O=C(CO)[C@@H](O)[C@H](O)[C@@H](O)CO + O
viscosity [mPa·s], 100 kPa
Details | 298.15 K | 308.15 K | 318.15 K
x1 = 7.21e-06, x2 = 0 | 0.896 ± 0.06 | 0.742 ± 0.06 | 0.617 ± 0.06
x1 = 1.442e-05, x2 = 0 | 0.898 ± 0.06 | 0.744 ± 0.06 | 0.617 ± 0.06
x1 = 2.162e-05, x2 = 0 | 0.9 ± 0.06 | 0.745 ± 0.06 | 0.617 ± 0.06

CCCC[N+]1(C)CCCCC1.N#C[N-]C#N + O
100 kPa
Details | viscosity [mPa·s]
298.15 K, x2 = 0.2122 | 73 ± 12
328.15 K, x2 = 0.7349 | 6.6 ± 1.1
333.15 K, x2 = 0.6419 | 8 ± 1.3

C=C[n+]1ccn(CC(N)=O)c1.O=S(=O)([N-]S(=O)(=O)C(F)(F)F)C(F)(F)F + CC#N
100 kPa
Details | electrical conductivity [S/m] | viscosity [mPa·s]
298.15 K, x1 = 0.01 | 1.29 ± 0.13 | 0.67 ± 0.14
303.15 K, x1 = 0.07 | 3.51 ± 0.28 | –
303.15 K, x1 = 0.1 | 3.28 ± 0.26 | 10 ± 2
303.15 K, x1 = 0.2 | 1.77 ± 0.14 | –
303.15 K, x1 = 0.201 | – | 69 ± 14
303.15 K, x1 = 0.393 | 0.48 ± 0.04 | –
303.15 K, x1 = 0.4011 | – | 680 ± 150
308.15 K, x1 = 0.01 | 1.4 ± 0.14 | 0.61 ± 0.13
308.15 K, x1 = 0.02 | 2.78 ± 0.22 | –
308.15 K, x1 = 0.201 | – | 60 ± 12
308.15 K, x1 = 1 | 0.03 ± 0.01 | –
313.15 K, x1 = 0.1 | 3.8 ± 0.3 | 8.2 ± 1.6
313.15 K, x1 = 0.4011 | – | 424 ± 89
318.15 K, x1 = 0.01 | 1.53 ± 0.15 | 0.55 ± 0.11
318.15 K, x1 = 0.047 | 3.87 ± 0.31 | –
318.15 K, x1 = 0.2 | 2.38 ± 0.19 | –
323.15 K, x1 = 0.08 | 4.39 ± 0.35 | –
323.15 K, x1 = 0.2 | 2.58 ± 0.21 | –
323.15 K, x1 = 0.3026 | – | 119 ± 24
323.15 K, x1 = 1 | 0.1 ± 0.01 | –
328.15 K, x1 = 0.07 | 4.58 ± 0.37 | –
328.15 K, x1 = 0.1 | 4.49 ± 0.36 | 6.6 ± 1.3
328.15 K, x1 = 0.4011 | – | 233 ± 48
328.15 K, x1 = 1 | 0.14 ± 0.01 | –
333.15 K, x1 = 0.047 | 4.34 ± 0.35 | –
333.15 K, x1 = 0.201 | – | 32.7 ± 6.6

C[N+](C)(C)CCO.O=S(=O)([N-]S(=O)(=O)C(F)(F)F)C(F)(F)F + OCCO
100 kPa, x1 = 0.14
Details | electrical conductivity [S/m] | viscosity [mPa·s]
303 K | 0.381 ± 0.038 | 17.9 ± 0.57
323 K | 0.73 ± 0.073 | 8.85 ± 0.28

CCCCCCCCCCCCCCCC[N+](C)(C)C.[Br-] + O + CO
electrical conductivity [S/m], 101 kPa
Details | 293 K | 298 K | 303 K | 308 K | 313 K
x1 = 1.91e-06, x2 = 0.92 | 0.0025 ± 0.0001 | 0.0026 ± 0.0001 | 0.0022 ± 0.0001 | 0.0037 ± 0.0001 | 0.003 ± 0.0001
x1 = 5.74e-06, x2 = 0.92 | 0.0046 ± 0.0001 | 0.0047 ± 0.0001 | 0.0044 ± 0.0001 | 0.0063 ± 0.0001 | 0.0059 ± 0.0001
x1 = 9.57e-06, x2 = 0.92 | 0.0065 ± 0.0001 | 0.0067 ± 0.0001 | 0.0069 ± 0.0001 | – | 0.0088 ± 0.0001
x1 = 1.148e-05, x2 = 0.92 | 0.0077 ± 0.0001 | 0.0079 ± 0.0001 | 0.0083 ± 0.0001 | 0.0107 ± 0.0001 | 0.0106 ± 0.0001
x1 = 1.34e-05, x2 = 0.92 | 0.0087 ± 0.0001 | 0.009 ± 0.0001 | 0.0096 ± 0.0001 | 0.0122 ± 0.0001 | 0.0122 ± 0.0001
x1 = 1.531e-05, x2 = 0.92 | 0.0099 ± 0.0001 | 0.0102 ± 0.0001 | 0.0109 ± 0.0001 | – | 0.014 ± 0.0002
x1 = 1.723e-05, x2 = 0.92 | 0.0111 ± 0.0001 | 0.0114 ± 0.0001 | 0.0123 ± 0.0002 | 0.0157 ± 0.0002 | 0.016 ± 0.0002
x1 = 1.914e-05, x2 = 0.92 | 0.0121 ± 0.0001 | 0.0125 ± 0.0001 | 0.0138 ± 0.0002 | 0.0174 ± 0.0002 | 0.018 ± 0.0002
x1 = 2.871e-05, x2 = 0.92 | 0.0168 ± 0.0002 | 0.018 ± 0.0002 | 0.0199 ± 0.0002 | 0.0248 ± 0.0003 | 0.0261 ± 0.0003
x1 = 3.828e-05, x2 = 0.92 | 0.0215 ± 0.0002 | 0.0236 ± 0.0003 | 0.0263 ± 0.0003 | 0.0325 ± 0.0004 | 0.0352 ± 0.0004
x1 = 5.742e-05, x2 = 0.9199 | 0.0306 ± 0.0003 | 0.0338 ± 0.0004 | 0.0381 ± 0.0005 | 0.0467 ± 0.0005 | 0.0521 ± 0.0006
x1 = 7.656e-05, x2 = 0.9199 | 0.0391 ± 0.0005 | 0.0441 ± 0.0005 | 0.0502 ± 0.0006 | 0.0608 ± 0.0007 | 0.0687 ± 0.0007
x1 = 9.57e-05, x2 = 0.9199 | 0.0439 ± 0.0005 | 0.0508 ± 0.0006 | 0.0579 ± 0.0007 | 0.0702 ± 0.0008 | –
x1 = 0.0001148, x2 = 0.9199 | 0.0472 ± 0.0006 | 0.0552 ± 0.0006 | 0.0632 ± 0.0008 | 0.0758 ± 0.0009 | –
x1 = 0.000134, x2 = 0.9199 | 0.05 ± 0.0006 | 0.0585 ± 0.0007 | 0.0675 ± 0.0008 | 0.0806 ± 0.001 | –
x1 = 0.0001531, x2 = 0.9199 | 0.0527 ± 0.0006 | 0.0618 ± 0.0007 | 0.0719 ± 0.0009 | 0.0858 ± 0.001 | –
x1 = 0.0001722, x2 = 0.9198 | 0.0554 ± 0.0007 | 0.0652 ± 0.0008 | 0.0758 ± 0.0009 | 0.0904 ± 0.0011 | –
x1 = 0.0001914, x2 = 0.9198 | 0.0582 ± 0.0007 | 0.0684 ± 0.0008 | 0.0801 ± 0.001 | 0.0955 ± 0.0011 | –
x1 = 0.0002105, x2 = 0.9198 | 0.0607 ± 0.0007 | 0.0715 ± 0.0009 | 0.0839 ± 0.001 | 0.101 ± 0.0012 | –
x1 = 0.0002296, x2 = 0.9198 | 0.0631 ± 0.0008 | 0.0747 ± 0.0009 | 0.0879 ± 0.0011 | 0.105 ± 0.0013 | –
x1 = 0.0002488, x2 = 0.9198 | 0.0661 ± 0.0008 | 0.078 ± 0.0009 | 0.0917 ± 0.0011 | 0.11 ± 0.0013 | –
x1 = 0.0002679, x2 = 0.9198 | 0.0688 ± 0.0008 | 0.0811 ± 0.001 | 0.0958 ± 0.0012 | 0.115 ± 0.0014 | –

CCCCCCCCn1cc[n+](C)c1.[Cl-] + CCCO
101 kPa
Details | viscosity [mPa·s]
298.15 K, x2 = 0 | 21000
298.15 K, x2 = 0.7248 | 19.25 ± 0.49
298.15 K, x2 = 0.9024 | 4.6 ± 0.13
313.15 K, x2 = 0.407 | 160 ± 17
328.15 K, x2 = 0 | 1091 ± 300
328.15 K, x2 = 0.1071 | 560 ± 120
328.15 K, x2 = 0.2407 | 231 ± 32
328.15 K, x2 = 0.3036 | 144 ± 14
328.15 K, x2 = 0.6209 | 17.73 ± 0.45
328.15 K, x2 = 0.7248 | 8.25 ± 0.22
328.15 K, x2 = 0.94 | 1.679 ± 0.051
328.15 K, x2 = 0.9729 | 1.372 ± 0.043

N + CCCC[n+]1ccn(C)c1.O=S(=O)([N-]S(=O)(=O)C(F)(F)F)C(F)(F)F
313.2 K, 101 kPa
Details | viscosity [mPa·s]
x2 = 0.7997 | 20.1 ± 2.1
x2 = 0.8338 | 21.7 ± 2.3
x2 = 0.8696 | 22 ± 2.3
x2 = 0.9099 | 23.1 ± 2.4
x2 = 0.9541 | 25.1 ± 2.6
